Reference: publication PMC12717519, “Chemical clues to infection: A pilot study on the differential secondary metabolite production during the life cycle of selected Cordyceps species” (IMA Fungus, 2025)
Converted amounts (≈) assume the structure as drawn. Read-outs that look alike come from different tables or passages of the source.

Key:
[1] = Solubility in deuterated solvents (for NMR); assay type: physicochemical; details: observation during NMR sample preparation; deuterated solvents / deuterated DMSO
[2] = test system: Staphylococcus aureus (DSM 346); assay: microbe, parasite or virus in culture; assay type: cell-based
Experimental: (§1) Serial dilution assays were performed in 96-well microtiter plates to determine the minimum inhibitory concentrations (MICs) against a panel of yeasts, filamentous fungi, and bacteria, as well as the half-maximal inhibitory concentrations (IC50) against human cell lines, following our previously described protocol ([Charria-Girón et al. 2023]).

[3] = test system: Bacillus subtilis (DSM 10); assay: microbe, parasite or virus in culture; assay type: cell-based
Experimental: as §1

[4] = test system: Human endocervival adenocarcinoma (KB3.1); assay: cells; assay type: cell-based
Experimental: as §1

[5] = test system: Mouse fibroblast (L929); assay: Cytotoxicity assay; assay type: cell-based; details: serial dilution in 96-well plates
[6] = test system: Mycobacterium smegmatis (ATCC 700084); assay: MIC serial dilution assay; assay type: cell-based; details: serial dilution in 96-well microtiter plates; tested up to 67 µg/mL
Experimental: as §1

[7] = test system: Escherichia coli (DSM 1116); assay: MIC serial dilution assay; assay type: cell-based; details: serial dilution in 96-well microtiter plates; tested up to 67 µg/mL
Experimental: as §1

[8] = test system: Pseudomonas aeruginosa (PA14); assay: MIC serial dilution assay; assay type: cell-based; details: serial dilution in 96-well microtiter plates; tested up to 67 µg/mL
Experimental: as §1

[9] = test system: Rhodotorula glutinis (DSM 10134); assay: MIC serial dilution assay; assay type: cell-based; details: serial dilution in 96-well microtiter plates; tested up to 67 µg/mL
Experimental: as §1

[10] = test system: Chromobacterium violaceum (DSM 30191); assay: MIC serial dilution assay; assay type: cell-based; details: serial dilution in 96-well microtiter plates; tested up to 67 µg/mL
Experimental: as §1

[11] = test system: Wickerhamomyces anomalus (DSM 6766); assay: MIC serial dilution assay; assay type: cell-based; details: serial dilution in 96-well microtiter plates; tested up to 67 µg/mL
Experimental: as §1

[12] = test system: Mucor hiemalis (DSM 2656); assay: MIC serial dilution assay; assay type: cell-based; details: serial dilution in 96-well microtiter plates; tested up to 67 µg/mL
Experimental: as §1

[13] = test system: Schizosaccharomyces pombe (DSM 70572); assay: MIC serial dilution assay; assay type: cell-based; details: serial dilution in 96-well microtiter plates; tested up to 67 µg/mL
Experimental: as §1

[14] = test system: Acinetobacter baumannii (DSM 30008); assay: MIC serial dilution assay; assay type: cell-based; details: serial dilution in 96-well microtiter plates; tested up to 67 µg/mL
Experimental: as §1

[15] = test system: Candida albicans (DSM 1665); assay: MIC serial dilution assay; assay type: cell-based; details: serial dilution in 96-well microtiter plates; tested up to 67 µg/mL
Experimental: as §1

[16] = ref Namatame et al. 2004; cited from earlier work
Text: (§2) Our study highlights how amino acid substitutions modulate beauveriolides’ bioactivities. […] Thus, the amino acid at this position is crucial for bioactivity. The lack of antimicrobial activity in some beauveriolides, such as those containing HDA, further supports the hypothesis that these molecules may have different functions, such as facilitating insect pathogenicity rather than broad antimicrobial antagonism.

[17] = test system: macrophages; details: ref Namatame et al. 2004; cited from earlier work
Text: as §2

[18] = test system: Human epidermoid carcinoma (A431); assay type: cell-based
Experimental: as §1

[19] = test system: Human prostate carcinoma (PC-3); assay type: cell-based
Experimental: as §1

[20] = test system: Human lung carcinoma (A549); assay type: cell-based
Experimental: as §1

[21] = test system: Human ovarian cancer (SKOV-3); assay: Cytotoxicity assay; assay type: cell-based; details: serial dilution in 96-well plates
Experimental: as §1

[22] = test system: Human breast adenocarcinoma (MCF-7); assay: Cytotoxicity assay; assay type: cell-based; details: serial dilution in 96-well plates
Experimental: as §1

[23] = test system: beet armyworm (Spodoptera exigua, Lepidoptera); assay: Virulence of purified compounds against beet armyworm larvae (injection); assay type: in vivo; details: larvae injected with 0.5 µL of DMSO dilutions (40 to 0.625 µg/mL), n = 6 per concentration, 25 °C, concentration of the value not stated
Experimental: To evaluate the virulence of purified compounds against beet armyworm larvae, beauveriolides I (4) and M (5) were selected based on availability, and cytochalasin D served as a positive control. […] Larvae were injected with 0.5 µL of each dilution (n = 6 per concentration), maintained at 25 °C for one week, and monitored daily to assess mortality. Saline ([…]) and DMSO served as negative controls.
For proof of concept, beauveriolides I (4) and M (5) were selected based on availability and tested following the spore-suspension protocol but considering only total mortality, with cytochalasin D, a mycotoxin commonly produced by Metarhizium spp., used as a positive control ([Kobmoo et al. 2024]).

[24] = serial dilution in 96-well microtiter plates, tested up to 67 µg/mL
[25] = KB3.1, serial dilution in 96-well plates, read-out: IC50

Row | Molecule | solubility in deuterated solvents [1] | MIC [2, 24] | MIC [3, 24] | IC50 [4, 25] | IC50 [5] | MIC [6] | MIC [7] | MIC [8] | MIC [9] | MIC [10] | MIC [11] | MIC [12] | MIC [13] | MIC [14] | MIC [15] | adverse outcomes in animal studies [16] | antiatherogenic effects in macrophages [17] | other results
1 | Beauveriolide R [Compound 2] | soluble | n.i. (No inhibition up to 67 µg/mL) | n.i. (No inhibition up to 67 µg/mL) | > 36.5 µM | > 36.5 µM | n.i. (No inhibition up to 67 µg/mL) | n.i. (No inhibition up to 67 µg/mL) | n.i. (No inhibition up to 67 µg/mL) | n.i. (No inhibition up to 67 µg/mL) | n.i. (No inhibition up to 67 µg/mL) | n.i. (No inhibition up to 67 µg/mL) | n.i. (No inhibition up to 67 µg/mL) | n.i. (No inhibition up to 67 µg/mL) | n.i. (No inhibition up to 67 µg/mL) | n.i. (No inhibition up to 67 µg/mL) |  |  | 
2 | Beauveriolide III [reference compound] |  |  |  |  |  |  |  |  |  |  |  |  |  |  |  | without adverse outcomes | potent antiatherogenic effects | 
3 | CCCC[C@H](C)[C@@H]1CC(=O)N[C@@H](Cc2ccccc2)C(=O)N[C@@H](C)C(=O)N[C@H](CC(C)C)C(=O)O1 [Compound 4, beauveriolide I] |  |  |  |  |  | n.i. (No inhibition up to 67 µg/mL) | n.i. (No inhibition up to 67 µg/mL) | n.i. (No inhibition up to 67 µg/mL) |  |  |  | n.i. (No inhibition up to 67 µg/mL) |  |  | n.i. (No inhibition up to 67 µg/mL) | without adverse outcomes | potent antiatherogenic effects | MIC ([2]; DSM 346): 66.6 µg/mL (≈ 137 µM); MIC ([3]; DSM 10): 66.6 µg/mL (≈ 137 µM); IC50 [4]: 13.3 µM; IC50 [18]: 1.2 µM; IC50 [19]: 3.5 µM; IC50 [20]: 0.9 µM; IC50 [21]: > 36.5 µM; IC50 [22]: > 36.5 µM; total mortality (TM) in the last two days ([23]; 7-day period): 67%; average total mortality (TM) over the first five days [23]: 33%
4 | Beauveriolide Q [Compound 1] | poor solubility | n.i. (No inhibition up to 67 µg/mL) | n.i. (No inhibition up to 67 µg/mL) | > 36.5 µM | > 36.5 µM | n.i. (No inhibition up to 67 µg/mL) | n.i. (No inhibition up to 67 µg/mL) | n.i. (No inhibition up to 67 µg/mL) | n.i. (No inhibition up to 67 µg/mL) | n.i. (No inhibition up to 67 µg/mL) | n.i. (No inhibition up to 67 µg/mL) | n.i. (No inhibition up to 67 µg/mL) | n.i. (No inhibition up to 67 µg/mL) | n.i. (No inhibition up to 67 µg/mL) | n.i. (No inhibition up to 67 µg/mL) |  |  | 
